Assay results: the NIST ThermoML archive (doi:10.1016/j.jct.2015.08.010)
Numbers after ± are expanded uncertainties.

What was measured:
[1] = 100 kPa, Liquid; for viscosity: Falling or rolling sphere viscometry; for mass density: Vibrating tube method
[2] = xn = mol fraction of the nth substance listed; details: 100 kPa, Liquid, Falling or rolling sphere viscometry, x2 = 0

viscosity ([1]; 293.15 K) [mPa·s]	mass density ([1]; 293.15 K) [kg/m3]	viscosity ([1]; 298.15 K) [mPa·s]	mass density ([1]; 298.15 K) [kg/m3]	viscosity ([1]; 303.15 K) [mPa·s]	mass density ([1]; 303.15 K) [kg/m3]	viscosity ([1]; 308.15 K) [mPa·s]	mass density ([1]; 308.15 K) [kg/m3]	viscosity ([1]; 313.15 K) [mPa·s]	mass density ([1]; 313.15 K) [kg/m3]	viscosity ([2]; 293.15 K) [mPa·s]	viscosity ([2]; 298.15 K) [mPa·s]	viscosity ([2]; 303.15 K) [mPa·s]	viscosity ([2]; 308.15 K) [mPa·s]	viscosity ([2]; 313.15 K) [mPa·s]	Structure (SMILES)
47.82 ± 1.2	1053.63 ± 4.3	34.94 ± 0.85	1049.78 ± 4.3	26.36 ± 0.64	1045.94 ± 4.3	20.5 ± 0.49	1042.11 ± 4.2	16.28 ± 0.39	1038.28 ± 4.2						C1CCC2=NCCC[NH+]2CC1.c1c[n-]cn1 [1,8-diazabicyclo[5.4.0]undec-7-enium imidazolide]
1.002 ± 0.021		0.89 ± 0.02		0.797 ± 0.017		0.718 ± 0.015		0.651 ± 0.014							O [water]
										1.002 ± 0.021	0.89 ± 0.02	0.797 ± 0.017	0.718 ± 0.015	0.651 ± 0.014	O [water] + C1CCC2=NCCC[NH+]2CC1.c1c[n-]cn1
